Columns and labels:
C57BL/6J mice [1] = test: Acute administration of A28 at multiple doses, urinary glucose of C57BL/6J mice; assay type: in vivo, mouse; settings: 24 h urine
Method: (1) 90 normal male C57BL/6J mice were selected and randomly divided into 9 groups according to body weight and blood glucose, 10 in each group. […] After oral gavage, the mice were placed in rats (mice) metabolic cages, […] and urine was collected after 24 h, and the urine volume was recorded, then preserved under −20° C. Rats take food and water freely during the experimental period.
(§1) (2) Index Determination: Glucose levels in urine are measured by the glucose assay kit.

SD rats [2] = test: Acute administration of A28 at multiple doses, glucose tolerance of SD rats; assay type: in vivo, rat; settings: SD rats OGTT; for Blood glucose level 0: before sugar
Method: (1) 80 SD rats were selected and starved overnight, took water freely, then randomly divided into 10 groups according to body weight and random blood glucose, 8 rats in each group. […] 1 h after oral gavage, 3 g/kg of glucose was orally administered to each group except blank control group, and the blood glucose level was monitored before the sugar administration, and at 15, 30, 60, 90 and 120 minutes after the sugar administration.
Average hypoglycemic rate %=(AUC0-120 min of solvent control group−AUC0-120 min of administration group)/(AUC0-120 min of solvent control group−AUC0-120 min of blank control group)*100%

C57BL/6J mice [3] = test: Acute administration of A28 at multiple doses, oral glucose tolerance of C57BL/6J mice; assay type: in vivo, mouse; settings: C57BL/6J mice OGTT; for Blood glucose level 0: before sugar
Method: (1) Experimental Methods: 56 C57BL/6J mice were selected and starved for 6 h, took water freely, then randomly divided into 7 groups according to body weight and random blood glucose, 8 rats in each group. […] Average hypoglycemic rate %=(AUC0-120 min of solvent control group−AUC0-120 min of administration group)/(AUC0-120 min of solvent control group−AUC0-120 min of blank control group)*100%

db/db mice = test: Chronic administration, glucose-stimulated insulin release in db/db mice; assay type: in vivo, mouse; settings: glucose-stimulated insulin release, chronic administration
Method: Oral gavage administrated, daily dose volume was 10 mL/kg, administered once daily. Administration time was 9: 00-10:00 daily, and the administration period was 5 weeks.
The fourth week after administration, the mice were starved for 6 hours after morning administration and were orally administrated with glucose (1.5 g/kg), and blood was collected from the tail (10 μL EDTA+20 μL tail blood). Centrifuged and the supernatant was taken, stored at −20° C. for insulin test.

SD rats [4] = test: Acute administration of A28 at multiple doses, urinary glucose of SD rats; assay type: in vivo, rat; settings: within 24 h
Method: (1) 72 normal male SD rats were selected and randomly divided into 9 groups according to body weight and blood glucose, 8 in each group. […] After oral gavage, the rats were placed in rats metabolic cages, and urine was collected after 24 h, and the urine volume was recorded, then preserved under −20° C. Rats take food and water freely during the experimental period.
as §1

Compound: CCOc1ccc(Cc2cc([C@@H]3O[C@H](CO)[C@@H](O)[C@H](O)[C@H]3O)ccc2Cl)cc1 [Dapa]
- Total sugar excretion (C57BL/6J mice [1]; oral 1 mg/kg): 258.20 ± 81.71 mg/100 g
- Urine concentration (C57BL/6J mice [1]; oral 1 mg/kg): 142.82 ± 45.20 mmol/L
- Urine volume (C57BL/6J mice [1]; oral 1 mg/kg): 2.3 ± 0.7 mL
- Total sugar excretion (C57BL/6J mice [1]; oral 3 mg/kg): 315.49 ± 99.84 mg/100 g
- Urine concentration (C57BL/6J mice [1]; oral 3 mg/kg): 177.86 ± 56.29 mmol/L
- Urine volume (C57BL/6J mice [1]; oral 3 mg/kg): 2.3 ± 0.7 mL
- AUC0-2 h (SD rats [2]; oral 1 mg/kg): 16.6 ± 1.2 mmol·h/L
- Average hypoglycemic rate % (0-2 h) (SD rats [2]; oral 1 mg/kg): 35.1%
- Blood glucose level 15 min (SD rats [2]; oral 1 mg/kg): 6.6 ± 0.7 mmol/L
- Blood glucose level 30 min (SD rats [2]; oral 1 mg/kg): 7.8 ± 0.9 mmol/L
- Blood glucose level 60 min (SD rats [2]; oral 1 mg/kg): 9.4 ± 1.1 mmol/L
- Blood glucose level 90 min (SD rats [2]; oral 1 mg/kg): 9.5 ± 1.0 mmol/L
- Blood glucose level 120 min (SD rats [2]; oral 1 mg/kg): 7.9 ± 1.3 mmol/L
- Blood glucose level 0 (SD rats [2]; oral 1 mg/kg): 4.9 ± 0.4 mmol/L
- AUC0-2 h (SD rats [2]; oral 3 mg/kg): 14.9 ± 1.0 mmol·h/L
- Average hypoglycemic rate % (0-2 h) (SD rats [2]; oral 3 mg/kg): 51.5%
- Blood glucose level 15 min (SD rats [2]; oral 3 mg/kg): 4.7 ± 0.2 mmol/L
- Blood glucose level 30 min (SD rats [2]; oral 3 mg/kg): 6.9 ± 1.0 mmol/L
- Blood glucose level 60 min (SD rats [2]; oral 3 mg/kg): 8.6 ± 1.0 mmol/L
- Blood glucose level 90 min (SD rats [2]; oral 3 mg/kg): 8.6 ± 1.3 mmol/L
- Blood glucose level 120 min (SD rats [2]; oral 3 mg/kg): 8.3 ± 1.2 mmol/L
- Blood glucose level 0 (SD rats [2]; oral 3 mg/kg): 4.0 ± 0.6 mmol/L
- AUC0-2 h (C57BL/6J mice [3]; oral 0.3 mg/kg): 20.9 ± 1.6 mmol·h/L
- Average hypoglycemic rate % (0-2 h) (C57BL/6J mice [3]; oral 0.3 mg/kg): 4.9%
- Blood glucose level 15 min (C57BL/6J mice [3]; oral 0.3 mg/kg): 13.4 ± 2.3 mmol/L
- Blood glucose level 30 min (C57BL/6J mice [3]; oral 0.3 mg/kg): 12.1 ± 1.0 mmol/L
- Blood glucose level 60 min (C57BL/6J mice [3]; oral 0.3 mg/kg): 10.6 ± 1.0 mmol/L
- Blood glucose level 90 min (C57BL/6J mice [3]; oral 0.3 mg/kg): 9.3 ± 1.1 mmol/L
- Blood glucose level 120 min (C57BL/6J mice [3]; oral 0.3 mg/kg): 8.8 ± 0.8 mmol/L
- Blood glucose level 0 (C57BL/6J mice [3]; oral 0.3 mg/kg): 7.1 ± 0.4 mmol/L
- AUC0-2 h (C57BL/6J mice [3]; oral 1 mg/kg): 19.3 ± 1.3 mmol·h/L
- Average hypoglycemic rate % (0-2 h) (C57BL/6J mice [3]; oral 1 mg/kg): 12.4%
- Blood glucose level 15 min (C57BL/6J mice [3]; oral 1 mg/kg): 12.3 ± 1.1 mmol/L
- Blood glucose level 30 min (C57BL/6J mice [3]; oral 1 mg/kg): 12.0 ± 1.1 mmol/L
- Blood glucose level 60 min (C57BL/6J mice [3]; oral 1 mg/kg): 9.1 ± 1.1 mmol/L
- Blood glucose level 90 min (C57BL/6J mice [3]; oral 1 mg/kg): 8.4 ± 0.9 mmol/L
- Blood glucose level 120 min (C57BL/6J mice [3]; oral 1 mg/kg): 8.5 ± 0.9 mmol/L
- Blood glucose level 0 (C57BL/6J mice [3]; oral 1 mg/kg): 6.5 ± 0.9 mmol/L
- AUC0-2 h (C57BL/6J mice [3]; oral 3 mg/kg): 18.2 ± 1.6 mmol·h/L
- Average hypoglycemic rate % (0-2 h) (C57BL/6J mice [3]; oral 3 mg/kg): 17.5%
- Blood glucose level 15 min (C57BL/6J mice [3]; oral 3 mg/kg): 11.6 ± 0.9 mmol/L
- Blood glucose level 30 min (C57BL/6J mice [3]; oral 3 mg/kg): 11.6 ± 1.1 mmol/L
- Blood glucose level 60 min (C57BL/6J mice [3]; oral 3 mg/kg): 8.9 ± 1.4 mmol/L
- Blood glucose level 90 min (C57BL/6J mice [3]; oral 3 mg/kg): 7.9 ± 1.1 mmol/L
- Blood glucose level 120 min (C57BL/6J mice [3]; oral 3 mg/kg): 7.0 ± 0.6 mmol/L
- Blood glucose level 0 (C57BL/6J mice [3]; oral 3 mg/kg): 6.1 ± 1.0 mmol/L
- Insulin AUC (db/db mice; dose 1 mg/kg): 27.89 ± 3.63
- Insulin (ng/ml) 0 min (db/db mice; dose 1 mg/kg): 12.92 ± 1.17 ng/mL
- Insulin (ng/ml) 15 min (db/db mice; dose 1 mg/kg): 35.99 ± 5.34 ng/mL
- Insulin (ng/ml) 30 min (db/db mice; dose 1 mg/kg): 29.85 ± 4.97 ng/mL
- Insulin (ng/ml) 60 min (db/db mice; dose 1 mg/kg): 24.33 ± 2.90 ng/mL
- Insulin (ng/ml) pre (db/db mice; dose 1 mg/kg): 8.05 ± 1.10 ng/mL
- Insulin AUC (db/db mice; dose 3 mg/kg): 22.69 ± 2.89
- Insulin (ng/ml) 0 min (db/db mice; dose 3 mg/kg): 8.41 ± 1.07 ng/mL
- Insulin (ng/ml) 15 min (db/db mice; dose 3 mg/kg): 21.29 ± 3.11 ng/mL
- Insulin (ng/ml) 30 min (db/db mice; dose 3 mg/kg): 22.60 ± 3.22 ng/mL
- Insulin (ng/ml) 60 min (db/db mice; dose 3 mg/kg): 31.36 ± 5.44 ng/mL
- Insulin (ng/ml) pre (db/db mice; dose 3 mg/kg): 8.15 ± 0.91 ng/mL
- Total sugar excretion (SD rats [4]; oral 1 mg/kg): 706.69 ± 39.98 mg/100 g
- Urine concentration (SD rats [4]; oral 1 mg/kg): 313.13 ± 16.92 mmol/L
- Urine volume (SD rats [4]; oral 1 mg/kg): 31.38 ± 1.99 mL
- Total sugar excretion (SD rats [4]; oral 3 mg/kg): 859.30 ± 41.55 mg/100 g
- Urine concentration (SD rats [4]; oral 3 mg/kg): 327.16 ± 24.63 mmol/L
- Urine volume (SD rats [4]; oral 3 mg/kg): 36.88 ± 1.55 mL
